Assay results: patent publication US6479480B1, “Phenylindole derivatives as 5-ht2a receptor ligands” (Merck Sharp & Dohme Ltd., priority 1998, dated 2002)

System: schizophrenic patients
Details: multicentre, placebo-controlled study; cited from earlier work

SMILES	efficacy for antipsychotic potential	neurological adverse effects
COc1cccc(C(O)C2CCN(CCc3ccc(F)cc3)CC2)c1OC (stereo not drawn) [MDL-100,907, (+)-α-(2,3-dimethoxyphenyl)-1-[2-(4-fluorophenyl)-ethyl]-4-piperidinemethanol]	demonstrated efficacy	no neurological adverse effects

System: animal models
Details: preclinical studies; cited from earlier work

SMILES	block of apomorphine-induced stereotyped behaviour
COc1cccc(C(O)C2CCN(CCc3ccc(F)cc3)CC2)c1OC (stereo not drawn) [MDL-100,907, (+)-α-(2,3-dimethoxyphenyl)-1-[2-(4-fluorophenyl)-ethyl]-4-piperidinemethanol]	failed to block apomorphine-induced stereotyped behaviour

System: not given
Details: not given

SMILES	melting point [°C]
O=C(O)C(=O)O.c1ccc(CN2CCCC2Cc2c(-c3ccccc3)[nH]c3ccccc23)cc1 (centres unmarked)	210
O=C(O)C(=O)O.c1ccc(CCN2CCCC2Cc2c(-c3ccccc3)[nH]c3ccccc23)cc1 (centres unmarked)	182
O=C(O)C(=O)O.c1ccc(CN2CCC(Cc3c(-c4ccccc4)[nH]c4ccccc34)C2)cc1 (centres unmarked)	95
O=C(O)C(=O)O.c1ccc(CCN2CCC(Cc3c(-c4ccccc4)[nH]c4ccccc34)C2)cc1 (centres unmarked)	100
CN1CCCC[C@H]1Cc1c(-c2ccccc2)[nH]c2ccccc12	135
CN1CCC(Cc2c(-c3ccccc3)[nH]c3ccccc23)C1.O=C(O)C(=O)O (centres unmarked)	80
CCN1CCCCC1Cc1c(-c2ccccc2)[nH]c2ccccc12.O=C(O)C(=O)O (centres unmarked)	197
COCCN1CCCCC1Cc1c(-c2ccccc2)[nH]c2ccccc12.O=C(O)C(=O)O (centres unmarked)	185
O=C(O)C(=O)O.c1ccc(CN2CCCCC2Cc2c(-c3ccccc3)[nH]c3ccccc23)cc1 (centres unmarked)	235
O=C(O)C(=O)O.c1ccc(CCN2CCCCC2Cc2c(-c3ccccc3)[nH]c3ccccc23)cc1 (centres unmarked)	232
CN1CCNC[C@@H]1Cc1c(-c2cccc(F)c2)[nH]c2cc(F)ccc12.Cl.Cl	200
CN1CCC[C@@H]1Cc1c(-c2ccccc2)[nH]c2ccccc12	132
CN1CCC[C@H]1Cc1c(-c2ccccc2)[nH]c2ccccc12	133
CN1C2CCC(CC2)C1Cc1c(-c2ccccc2)[nH]c2ccccc12.O=C(O)C(=O)O (centres unmarked)	193
CN1C2CCC(C2)C1Cc1c(-c2ccccc2)[nH]c2ccccc12.Cl (centres unmarked)	176
CN1CCN(C)[C@@H](Cc2c(-c3ccccc3)[nH]c3ccccc23)C1.Cl.Cl	253
CN1CCN(C)[C@@H](Cc2c(-c3ccccc3)[nH]c3c(Cl)cccc23)C1.Cl.Cl	260
CN1CCCC(Cc2c(-c3ccccc3)[nH]c3ccccc23)C1.O=C(O)C(=O)O (centres unmarked) (hydrate or solvate)	234
O=C(O)C(=O)O.c1ccc(CCN2CCCC(Cc3c(-c4ccccc4)[nH]c4ccccc34)C2)cc1 (centres unmarked) (hydrate or solvate)	128
CN1CCCC[C@@H]1Cc1c(-c2ccccc2)[nH]c2ccccc12 (hydrate or solvate)	150
CN1CCN[C@@H](Cc2c(-c3cccc(F)c3)[nH]c3cc(F)ccc23)C1.Cl.Cl (hydrate or solvate)	228
C[C@@H]1CC[C@H](Cc2c(-c3ccccc3)[nH]c3ccccc23)N1C.O=C(O)C(=O)O (relative stereo)	183

Target: human dopamine D2 receptor (Homo sapiens, UniProt P14416)
Sequence (P14416 whole entry): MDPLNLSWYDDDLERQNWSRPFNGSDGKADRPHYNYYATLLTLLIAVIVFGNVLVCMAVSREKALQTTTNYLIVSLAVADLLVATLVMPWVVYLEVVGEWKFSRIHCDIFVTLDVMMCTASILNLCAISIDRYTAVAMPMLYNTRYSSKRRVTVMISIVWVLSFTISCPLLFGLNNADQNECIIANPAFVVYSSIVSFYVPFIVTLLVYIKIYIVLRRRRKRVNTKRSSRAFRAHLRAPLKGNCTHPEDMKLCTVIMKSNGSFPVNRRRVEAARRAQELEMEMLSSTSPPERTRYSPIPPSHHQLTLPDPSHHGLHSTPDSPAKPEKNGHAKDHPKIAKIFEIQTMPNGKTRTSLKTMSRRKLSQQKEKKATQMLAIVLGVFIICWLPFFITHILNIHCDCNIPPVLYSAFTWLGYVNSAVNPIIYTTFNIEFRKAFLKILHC
Details: cited from earlier work

SMILES	activity at the human dopamine D2 receptor
COc1cccc(C(O)C2CCN(CCc3ccc(F)cc3)CC2)c1OC (stereo not drawn) [MDL-100,907, (+)-α-(2,3-dimethoxyphenyl)-1-[2-(4-fluorophenyl)-ethyl]-4-piperidinemethanol]	essentially devoid of activity
